For one assay, the system named is HT1080 cells. In words: TUNEL staining, HT1080 cells under hypoxia. Format: cell-based, human. The following applies: 2.5 μM; 48 hours of hypoxia. On the procedure:
A. Effect of irestatin 9389 on PERK and ATF6 pathways. HT1080 cells were treated with vehicle alone (lanes 1-4) or 2.5 μM irestatin 9389 (lanes 5-8) and cultured under aerobic conditions for 18 hours (N) or shifted to hypoxia for the indicated times. Protein lysates were analyzed by Western blot analysis using antisera specific for ATF6 (top), CHOP/GADD153 (middle) or actin (bottom). Arrow indicates the cleaved, transcriptionally active form of ATF6. B. Cleavage of caspase-3 in irestatin-treated cells under hypoxia. HT1080 cells were cultured in normoxia (N) or under hypoxia for 36 hours (H 36) in absence or presence of irestatin 9389 (2.5 μM). Arrows indicate proteolytically cleaved caspase-3. C. Colony formation assay. HT1080 cells were treated as in B under normoxia (N) or hypoxia for 48 hours (H 48). Cells were harvested, counted, and allowed to grow under normal culture conditions for 11-12 days. Colonies were visualized with crystal violet staining. D. Quantification of clonogenic survival assay. Values represent the mean+/−SEM from at least 4 independent experiments. E. TUNEL staining of cells treated as in C. F. Quantification of TUNEL-positive cells. Values represent the mean+/− SEM from at least 3 experiments. […] Cells were harvested at the indicated times and counted by hemocytometer. Values represent the mean calculated from triplicate experiments+/−SEM. […]

Another assay relates to Grp78. In words: Western immunoblot of Grp78, HT1080 cells. Format: cell-based, human. The note with it: irestatin 9389 2.5 μM, 16 hours (also 24 or 36 hours). On the procedure: Cells (2×10^6) were cultured in 10-cm dishes, collected using a cell scraper at 4° C., and lysed by addition of 150 μl cell lysis buffer [50 mM Tris pH 7.4, 150 mM NaCl, 10% glycerol, 0.5% Triton X-100. 0.5% NP-40, 2 mM Na3VO4, 20 mM beta-glycerophosphate, 10 mM NaF, 1 mM DTT, 1 mM PMSF). Lysates were centrifuged for 5 min at 10,000×g, and proteins (˜40 μg) were resolved by SDS-PAGE followed by semi-dry transfer to nitrocellulose membranes. Membranes were blocked in TBS-5% milk supplemented with 0.1% Tween-20. The blots were then probed overnight with relevant antibodies, washed, and incubated for 2 hours with species-specific secondary antibodies conjugated to horseradish peroxidase. After washing in block solution, immunoreactive material was detected by enhanced chemiluminescence (SuperSignal West Dura Extended, Pierce, Inc., Rockville, Ill.).
HT1080 cells were exposed to DMSO vehicle (lane 1), irestatin 9389 (2.5 μM; lane 2) for 16 hours or Tm (5 μg/ml; lane 3) for 8 hours. Following treatments, cells were harvested, lysed, and analyzed by immunoblotting using anti-Grp78 antibody (top) or anti-actin (bottom) as a loading control. […] Cell lysates were analyzed by Western immunoblotting using anti-IRE1α (bottom) or anti-phospho-IRE1α antibodies (top). […] Lysates were analyzed by Western blot using antisera specific for phospho-JNK1 (top) or total JNK1 (bottom). […]
For orientation: Immunoblotting shows a protein as a band on a membrane.

`Cc1csc(NC(=O)CSc2nc3c(c(C(F)(F)F)c2C#N)CCC3)n1` [Compound 9389]: the TUNEL-positive cells with HT1080 cells turned out to be 35%. In the assay on Grp78, the Grp78 levels entry is on record as “no effect on Grp78 levels”.

(Values after patent US20130150399A1, “INHIBITORS OF THE UNFOLDED PROTEIN RESPONSE AND METHODS FOR THEIR USE” (The Board of Trustees of the Leland Stanford Junior …, priority 2006, published 2013).)
